Reference: US9346812B2, “Substituted pyrrolopyrimidine compounds, compositions thereof, and methods of treatment therewith” (Signal Pharmaceutical LLC, priority 2013, dated 2016)

tested on: CAL51 cell proliferation; experiment: Cell Titer Glo Proliferation Assay (CAL51); type: cell-based, human; conditions: Homo sapiens, CAL-51; CAL51 cell proliferation, 72 h, Cell Titer Glo luminescence; read-out: Act. Level
How it was run: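 Viability is measured by CellTiter-Glo luminescence after 72 h of compound exposure. CAL51 cells were seeded in growth medium with 10% FBS and 2 mM glutamine, cultured overnight, then dosed with compound dilutions, vehicle held at 0.2% DMSO.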

SMILES | IC50
COc1cc(C(=O)N(C)CCO)ccc1Nc1nc(OC2CCCC2)c2c(-c3ccc4nc(C)oc4c3)c[nH]c2n1 [Example 233, 4-(4-(cyclopentyloxy)-5-(2-methylbenzo[d]oxazol-6-yl)-7H-pyrrolo[2,3-d]pyrimidin-2-ylamino)-N-(2-hydroxyethyl)-3-methoxy-N-methylbenzamide] | < 100 nM
COc1cc(C(=O)NC(C)(C)CO)ccc1Nc1nc(OC2CCCC2)c2c(-c3ccc4nc(C)oc4c3)c[nH]c2n1 [Example 234, 4-(4-(cyclopentyloxy)-5-(2-methylbenzo[d]oxazol-6-yl)-7H-pyrrolo[2,3-d]pyrimidin-2-ylamino)-N-(1-hydroxy-2-methylpropan-2-yl)-3-methoxybenzamide] | 100 to 400 nM
Cc1nc2ccc(-c3c[nH]c4nc(Nc5ccc6c(c5)CNC6=O)nc(OC5CCCC5)c34)cc2o1 [Example 235, 5-(4-(cyclopentyloxy)-5-(2-methylbenzo[d]oxazol-6-yl)-7H-pyrrolo[2,3-d]pyrimidin-2-ylamino)isoindolin-1-one] | < 100 nM
CNC(=O)c1ccc(Nc2nc(OC3CCOCC3)c3c(-c4ccnc(NC(C)=O)c4)c[nH]c3n2)c(OC)c1 [Example 236, 4-(5-(2-acetamidopyridin-4-yl)-4-(tetrahydro-2H-pyran-4-yloxy)-7H-pyrrolo[2,3-d]pyrimidin-2-ylamino)-3-methoxy-N-methylbenzamide] | < 100 nM
COc1cc(C(=O)NC2CC(O)C2)ccc1Nc1nc(OC2CCCC2)c2c(-c3ccc4nc(C)oc4c3)c[nH]c2n1 (stereo not shown) [Example 238, 4-(4-(cyclopentyloxy)-5-(2-methylbenzo[d]oxazol-6-yl)-7H-pyrrolo[2,3-d]pyrimidin-2-ylamino)-N-((1s,3s)-3-hydroxycyclobutyl)-3-methoxybenzamide] | < 100 nM
COc1cc(C(=O)N[C@H]2C[C@H](O)C2)ccc1Nc1nc(OC2CCCC2)c2c(-c3ccc4nc(C)oc4c3)c[nH]c2n1 [Example 239, 4-(4-(cyclopentyloxy)-5-(2-methylbenzo[d]oxazol-6-yl)-7H-pyrrolo[2,3-d]pyrimidin-2-ylamino)-N-((1r,3r)-3-hydroxycyclobutyl)-3-methoxybenzamide] | < 100 nM
COc1cc(C(=O)NC[C@H](C)O)ccc1Nc1nc(OC2CCCC2)c2c(-c3ccc4nc(C)oc4c3)c[nH]c2n1 [Example 240, (S)-4-(4-(cyclopentyloxy)-5-(2-methylbenzo[d]oxazol-6-yl)-7H-pyrrolo[2,3-d]pyrimidin-2-ylamino)-N-(2-hydroxypropyl)-3-methoxybenzamide] | 100 to 400 nM
COc1cc(C(=O)N2CCC2)ccc1Nc1nc(OC2CCCC2)c2c(-c3ccc4nc(C)oc4c3)c[nH]c2n1 [Example 241, azetidin-1-yl(4-(4-(cyclopentyloxy)-5-(2-methylbenzo[d]oxazol-6-yl)-7H-pyrrolo[2,3-d]pyrimidin-2-ylamino)-3-methoxyphenyl) methanone] | < 100 nM
COc1cc(C(=O)NC[C@H]2CCCO2)ccc1Nc1nc(OC2CCCC2)c2c(-c3ccc4nc(C)oc4c3)c[nH]c2n1 [Example 242, (R)-4-(4-(cyclopentyloxy)-5-(2-methylbenzo[d]oxazol-6-yl)-7H-pyrrolo[2,3-d]pyrimidin-2-ylamino)-3-methoxy-N-((tetrahydrofuran-2-yl)methyl)benzamide] | 100 to 400 nM
COc1cc(C(=O)NCC2CCOCC2)ccc1Nc1nc(OC2CCCC2)c2c(-c3ccc4nc(C)oc4c3)c[nH]c2n1 [Example 243, 4-(4-(cyclopentyloxy)-5-(2-methylbenzo[d]oxazol-6-yl)-7H-pyrrolo[2,3-d]pyrimidin-2-ylamino)-3-methoxy-N-((tetrahydro-2H-pyran-4-yl)methyl)benzamide] | 100 to 400 nM
Cc1nc2ccc(-c3c[nH]c4nc(Nc5ccc6c(c5)CN(C)C6=O)nc(OC5CCCC5)c34)cc2o1 [Example 244, 5-(4-(cyclopentyloxy)-5-(2-methylbenzo[d]oxazol-6-yl)-7H-pyrrolo[2,3-d]pyrimidin-2-ylamino)-2-methylisoindolin-1-one] | < 100 nM
CNC(=O)c1ccc(Nc2nc(OC3CCCC3)c3c(-c4ccc(C(=N)N)cc4)c[nH]c3n2)c(OC)c1 [Example 245, 4-(5-(4-carbamimidoylphenyl)-4-(cyclopentyloxy)-7H-pyrrolo[2,3-d]pyrimidin-2-ylamino)-3-methoxy-N-methylbenzamide] | 1000 to 10000 nM
CNC(=O)c1ccc(Nc2nc(OC(C)(C)C)c3c(-c4ccc5nc(C)oc5c4)c[nH]c3n2)c(OC)c1 [Example 246, 4-(4-tert-butoxy-5-(2-methylbenzo[d]oxazol-6-yl)-7H-pyrrolo[2,3-d]pyrimidin-2-ylamino)-3-methoxy-N-methylbenzamide] | < 100 nM
COc1cc(NC(C)=O)ccc1Nc1nc(OC2CCCC2)c2c(-c3ccc4nc(C)oc4c3)c[nH]c2n1 [Example 247, N-(4-(4-(cyclopentyloxy)-5-(2-methylbenzo[d]oxazol-6-yl)-7H-pyrrolo[2,3-d]pyrimidin-2-ylamino)-3-methoxyphenyl) acetamide] | 100 to 400 nM
COc1cc(C(=O)N(C)CCC#N)ccc1Nc1nc(OC2CCCC2)c2c(-c3ccc4nc(C)oc4c3)c[nH]c2n1 [Example 248, N-(2-cyanoethyl)-4-(4-(cyclo-pentyloxy)-5-(2-methylbenzo[d]oxazol-6-yl)-7H-pyrrolo[2,3-d]pyrimidin-2-ylamino)-3-methoxy-N-methylbenzamide] | < 100 nM
COc1cc(C(=O)N2CCCC2)ccc1Nc1nc(OC2CCCC2)c2c(-c3ccc4nc(C)oc4c3)c[nH]c2n1 [Example 249, (4-(4-(cyclopentyloxy)-5-(2-methylbenzo[d]oxazol-6-yl)-7H-pyrrolo[2,3-d]pyrimidin-2-ylamino)-3-methoxyphenyl) (pyrrolidin-1-yl)methanone] | 100 to 400 nM
COc1cc(C(=O)N(C)C2CCOCC2)ccc1Nc1nc(OC2CCCC2)c2c(-c3ccc4nc(C)oc4c3)c[nH]c2n1 [Example 250, 4-(4-(cyclopentyloxy)-5-(2-methylbenzo[d]oxazol-6-yl)-7H-pyrrolo[2,3-d]pyrimidin-2-ylamino)-3-methoxy-N-methyl-N-(tetrahydro-2H-pyran-4-yl)benzamide] | 100 to 400 nM
COc1cc(C(=O)N(CCO)C2CC2)ccc1Nc1nc(OC2CCCC2)c2c(-c3ccc4nc(C)oc4c3)c[nH]c2n1 [Example 251, 4-(4-(cyclopentyloxy)-5-(2-methylbenzo[d]oxazol-6-yl)-7H-pyrrolo[2,3-d]pyrimidin-2-ylamino)-N-cyclopropyl-N-(2-hydroxyethyl)-3-methoxybenzamide] | 100 to 400 nM
COc1cc(C(=O)NC2CCOCC2)ccc1Nc1nc(OC2CCCC2)c2c(-c3ccc4nc(C)oc4c3)c[nH]c2n1 [Example 252, 4-(4-(cyclopentyloxy)-5-(2-methylbenzo[d]oxazol-6-yl)-7H-pyrrolo[2,3-d]pyrimidin-2-ylamino)-3-methoxy-N-(tetrahydro-2H-pyran-4-yl)benzamide] | 100 to 400 nM
COc1cc(C(=O)N[C@@H]2CCC[C@@H]2O)ccc1Nc1nc(OC2CCCC2)c2c(-c3ccc4nc(C)oc4c3)c[nH]c2n1 [Example 253, 4-(4-(cyclopentyloxy)-5-(2-methylbenzo[d]oxazol-6-yl)-7H-pyrrolo[2,3-d]pyrimidin-2-ylamino)-N-((1R,2S)-2-hydroxycyclopentyl)-3-methoxybenzamide] | 100 to 400 nM
COc1cc(C(=O)NC[C@@H]2CCCO2)ccc1Nc1nc(OC2CCCC2)c2c(-c3ccc4nc(C)oc4c3)c[nH]c2n1 [Example 254, (S)-4-(4-(cyclopentyloxy)-5-(2-methylbenzo[d]oxazol-6-yl)-7H-pyrrolo[2,3-d]pyrimidin-2-ylamino)-3-methoxy-N-((tetrahydrofuran-2-yl)methyl) benzamide] | 100 to 400 nM
COc1cc(C(=O)NC2COC2)ccc1Nc1nc(OC2CCCC2)c2c(-c3ccc4nc(C)oc4c3)c[nH]c2n1 [Example 255, 4-(4-(cyclopentyloxy)-5-(2-methylbenzo[d]oxazol-6-yl)-7H-pyrrolo[2,3-d]pyrimidin-2-ylamino)-3-methoxy-N-(oxetan-3-yl)benzamide] | 100 to 400 nM
COc1cc(C(=O)NCCF)ccc1Nc1nc(OC2CCCC2)c2c(-c3ccc4nc(C)oc4c3)c[nH]c2n1 [Example 256, 4-(4-(cyclopentyloxy)-5-(2-methylbenzo[d]oxazol-6-yl)-7H-pyrrolo[2,3-d]pyrimidin-2-ylamino)-N-(2-fluoroethyl)-3-methoxybenzamide] | 100 to 400 nM
COc1cc(C(=O)N(C)CCC(N)=O)ccc1Nc1nc(OC2CCCC2)c2c(-c3ccc4nc(C)oc4c3)c[nH]c2n1 [Example 257, N-(3-amino-3-oxopropyl)-4-(4-(cyclopentyloxy)-5-(2-methylbenzo[d]oxazol-6-yl)-7H-pyrrolo[2,3-d]pyrimidin-2-ylamino)-3-methoxy-N-methylbenzamide] | < 100 nM
CNC(=O)c1ccc(-c2c[nH]c3nc(Nc4ccc(C(=O)NCCO)cc4OC)nc(OC4CCCC4)c23)cc1 [Example 258, 4-(4-(cyclopentyloxy)-5-(4-(methylcarbamoyl)phenyl)-7H-pyrrolo[2,3-d]pyrimidin-2-ylamino)-N-(2-hydroxyethyl)-3-methoxybenzamide] | < 100 nM
COc1cc(C(=O)N2CCN(C)CC2)ccc1Nc1nc(OC2CCCC2)c2c(-c3ccc4nc(C)oc4c3)c[nH]c2n1 [Example 259, (4-(4-(cyclopentyloxy)-5-(2-methylbenzo[d]oxazol-6-yl)-7H-pyrrolo[2,3-d]pyrimidin-2-ylamino)-3-methoxyphenyl)(4-methylpiperazin-1-yl)methanone] | < 100 nM
CNC(=O)c1ccc(Nc2nc(OC3CCCC3)c3c(-c4ccc5nonc5c4)c[nH]c3n2)c(OC)c1 [Example 260, 4-(5-(benzo[c][1,2,5]oxadiazol-5-yl)-4-(cyclopentyloxy)-7H-pyrrolo[2,3-d]pyrimidin-2-ylamino)-3-methoxy-N-methylbenzamide] | 1000 to 10000 nM
COc1cc(S(C)(=O)=O)c(F)cc1Nc1nc(OC2CCCC2)c2c(-c3ccc4nc(C)oc4c3)c[nH]c2n1 [Example 261, 4-(cyclopentyloxy)-N-(5-fluoro-2-methoxy-4-(methylsulfonyl)phenyl)-5-(2-methylbenzo[d]oxazol-6-yl)-7H-pyrrolo[2,3-d] pyrimidin-2-amine] | 100 to 400 nM
